The test system of one series is Mus musculus. Briefly: Antiinflammatory activity in po dosed dd mouse assessed as inhibition of acetic acid-induced vascular permeability administered 30 mins before acetic acid challenge measured after 20 mins. The class given is functional.
A short description of series [1]: Toxicity in po dosed dd mouse. To be noted: in vivo. The class given is organism-based.

From ChEMBL document CHEMBL1150756, “Isolation of an anti-inflammatory principle from the fruit juice of Ecballium elaterium” (J Nat Prod, 1988) come the findings set out here.

With `CC(=O)OC(C)(C)/C=C/C(=O)[C@](C)(O)[C@H]1[C@H](O)C[C@@]2(C)[C@@H]3CC=C4[C@H](C[C@H](O)C(=O)C4(C)C)[C@]3(C)C(=O)C[C@]12C` [CUCURBITACIN B], the ED50 in the series with Mus musculus is 6.1 mg/kg.
`CC(=O)OC(C)(C)/C=C/C(=O)[C@](C)(O)[C@H]1[C@H](O)C[C@@]2(C)[C@@H]3CC=C4[C@@H](C[C@H](O)C(=O)C4(C)C)[C@]3(C)C(=O)C[C@]12C` [CUCURBITACIN B] yielded an LD50 in series [1] of 10.9 mg/kg.

In general, ED50 refers to the dose at which the effect has come halfway, by size or by number of responders. Usually LD50 stands for the dose at which mortality reaches 50%. Lower therefore signals a more toxic substance.
